Data on five compounds can be found in patent US20260124122A1, “QUATERNARY AMMONIUM SILANE AQUEOUS HYDROGEL FORMULATIONS” (priority 2023, published 2026).

Common to all, as to assay type: physicochemical
The nature of data set [1]: Dissolution in water and stability of the aqueous solution of the isolated product. Particulars: for dissolution of the product in water: isolated product.
A short description of data set [2]: Hydrolysis of quaternary ammonium silane, Direct Infusion Mass Spectrometry, ESI+ mode. The method, then:
In this example, hydrolysis of Compound VII was evaluated in the mass-spectrometry study (Direct Infusion Mass Spectrometry, ESI+ mode).
In a first experiment, Compound VII was dissolved in propylene glycol and diluted with acetonitrile to a final concentration of 10 μg/mL in the sample. […] Two minor peaks with m/z of 592 (Compound VII) and m/z of 534 (mono-hydrolyzed species of Compound VII) are present at low abundance. […] Exposure time during the HPLC-mass spec analysis is less than 45 seconds, further confirming the rapid hydrolysis of the quaternary ammonium silane upon exposure to water.
In a second experiment, Compound VII was diluted in water to a final concentration of 10 μg/mL in the sample. The mass spectrum of the sample was recorded at a 30-minute time point and is shown FIG. 3. Compound VII was completely hydrolyzed within the 30-minute time frame according to the following reaction scheme:
0.50% of Compound VII was formulated with 2% propylene glycol, 1% HPMC, 0.1% poloxamer 407, 2% PEG, and 94.40% water.

Data set [3] in a line: Precipitation on addition to hydrogels containing ionic or non-ionic, carboxylic acid group containing ingredients. The note with it: zinc gluconate, sorbitol, glycerin. The method, then: 160 mls of distilled water was added to a 250 mL screw-top media bottle. 4 g of Xanthan gum was added slowly under vigorous stirring. The mixture was stirred overnight and the Xanthan gum was fully dissolved, with the mixture homogenous and clear. Zinc gluconate (0.2 g), sorbitol (10 g), glycerin (4 g), and Poloxamer 407 (0.4 g) were added to the mixture and stirred until homogenous and clear. […] At this point the process was stopped.
160 mls of distilled water was added to a 250 mL screw-top media bottle. 0.2 g of carbomer copolymer A was added slowly under vigorous stirring. The mixture was stirred overnight and the carbomer copolymer A was fully dissolved, with the mixture homogenous and clear. Zinc gluconate (0.2 g), sorbitol (10 g), glycerin (4 g), and Poloxamer 407 (0.4 g) were added to the mixture and stirred until homogenous and clear. […] At this point the process was stopped.
160 mls of distilled water was added to a 250 mL screw-top media bottle. 0.2 g of carbomer copolymer B was added slowly under vigorous stirring. The mixture was stirred overnight and the carbomer copolymer B was fully dissolved, with the mixture homogenous and clear. Zinc gluconate (0.2 g), sorbitol (10 g), glycerin (4 g), and Poloxamer 407 (0.4 g) were added to the mixture and stirred until homogenous and clear. […] At this point the process was stopped.
160 mls of distilled water was added to a 250 mL screw-top media bottle. 0.2 g of carrageenan was added slowly under vigorous stirring. The mixture was stirred overnight and the carrageenan was fully dissolved, with the mixture homogenous and clear. Zinc gluconate (0.2 g), sorbitol (10 g), glycerin (4 g), and Poloxamer 407 (0.4 g) were added to the mixture and stirred until homogenous and clear. […] At this point the process was stopped.
160 mls of distilled water was added to a 250 mL screw-top media bottle. 0.2 g of carboxymethylcellulose Sodium was added slowly under vigorous stirring. The mixture was stirred overnight and the Carboxymethylcellulose Sodium was fully dissolved, with the mixture homogenous and clear. Zinc gluconate (0.2 g), sorbitol (10 g), glycerin (4 g), and Poloxamer 407 (0.4 g) were added to the mixture and stirred until homogenous and clear. […] At this point the process was stopped.
160 mls of distilled water was added to a 250 mL screw-top media bottle. 0.2 g of Sodium Alginate was added slowly under vigorous stirring. The mixture was stirred overnight and the Sodium Alginate was fully dissolved, with the mixture homogenous and clear. Zinc gluconate (0.2 g), sorbitol (10 g), glycerin (4 g), and Poloxamer 407 (0.4 g) were added to the mixture and stirred until homogenous and clear. […] At this point the process was stopped.
160 mls of distilled water was added to a 250 mL screw-top media bottle. 4 g of HPMC having a viscosity 2600-5600 in H2O (20° C.) was added slowly under vigorous stirring. The mixture was stirred overnight and the HPMC was fully dissolved, with the mixture homogenous and clear. Zinc gluconate (0.2 g), sorbitol (10 g), glycerin (4 g), and sodium hyaluronate (0.4 g) were added to the mixture and stirred until homogenous and clear. […] At this point the process was stopped.

In the case of `CCCCCCCCCCCCCCCCCC[N+](C)(C)CCC[Si](OCCCO)(OCCCO)OCCCO` [Example 5, Dimethyl-octadecyl-[3-[tris(3-hydroxypropoxy)silyl]propyl]ammonium chloride], the “dissolution of the product in water” value in data set [1] (water) is listed as “dissolved readily in water”.

On to `CCCCCCCCCCCCCCCCCC[N+](C)(C)CCC[Si](OCC(C)O)(OCC(C)O)OCC(C)O.CS(=O)(=O)[O-]` (stereo not shown) [Compound VII, N,N-dimethyl-N-(3-(tris(2-hydroxypropoxy)silyl)propyl)octadecan-1-aminium methane sulfonate], for which the extent of hydrolysis result in data set [2] (0.50% formulated with 2% propylene glycol, 1% HPMC, 0.1% poloxamer 407, 2% PEG, 94.40% water) is reported as “complete hydrolysis”; in data set [2] (diluted in water, 30-minute time point), “complete hydrolysis”; in data set [2] (in propylene glycol diluted with acetonitrile, 10 μg/mL, 0.1% aqueous formic acid mobile phase, exposure less than 45 seconds), “Partial hydrolysis”. In addition, the “time frame of complete hydrolysis” value in data set [2] (diluted in water, 10 μg/mL) was ≤ 30 min.

Take `CCCCCCCCCCCCCCCCCC[N+](C)(C)CCC[Si](OCC(C)(CO)C(=O)O)(OCC(C)(CO)C(=O)O)OCC(C)(CO)C(=O)O` (stereo not shown) [Example 4, Dimethyl-octadecyl-[3-tris(2-carboxy-3-hydroxy-2-methyl-propoxy)silylpropyl]ammonium chloride]: in data set [1] (water), the “dissolution of the product in water” value was “dissolved readily in water”.

With `CCCCCCCCCCCCCCCCCC[N+](C)(C)CCC[Si](OCC(CO)(CO)NCCS(=O)(=O)[O-])(OCC(CO)(CO)NCCS(=O)(=O)O)OCC(CO)(CO)NCCS(=O)(=O)O` [Compound XIX, 2-[[1-[[3-[Dimethyl(octadecyl)ammonio]propyl-[3-hydroxy-2-(hydroxymethyl)-2-(2-sulfoethylamino)propoxy]-[3-hydroxy-2-(hydroxymethyl)-2-(2-sulfoethylamino)propoxy]silyl]oxymethyl]-2-hydroxy-1-(hydroxymethyl)ethyl]amino]-ethanesulfonate], the “precipitation on addition to the mixture” value in data set [3] (HPMC with sodium hyaluronate) is listed as “immediate precipitation”; in data set [3] (Sodium Alginate as gelling agent, Poloxamer 407), “immediate precipitation”; in data set [3] (Xanthan gum as gelling agent, Poloxamer 407), “immediate precipitation”; in data set [3] (carbomer copolymer A as gelling agent, Poloxamer 407), “immediate precipitation”; in data set [3] (carbomer copolymer B as gelling agent, Poloxamer 407) it was “immediate precipitation”; in data set [3] (carboxymethylcellulose Sodium as gelling agent, Poloxamer 407), “immediate precipitation”. In addition, the “precipitation on addition to the mixture” value in data set [3] (carrageenan as gelling agent, Poloxamer 407) is on record as “immediate precipitation”. In addition, the “time a solution in water remains clear” value in data set [1] (1% solution in water) is on record as > 5 months. Besides, in data set [1] (water, gentle heating), the “dissolution of the fine powder in water” value is reported as “dissolves quickly in water with gentle heating”.

As to `CCCCCCCCCCCCCCCCCC[N+](C)(C)CCC[Si](OCC(C)O)(OCC(C)O)OCC(C)O` (stereo not shown) [Example 1, Dimethyl-octadecyl-[3-[tris(2-hydroxypropoxy)silyl]propyl]ammonium chloride], in data set [1] (water), the “dissolution of the product in water” value is “dissolved readily in water”.
